# Target: T1, wild type ALAS2 (Homo sapiens, UniProt P22557)
# T1 construct: MBP (TEV-cleavable) (C, cleaved yes); made in house; host or cells: E. coli
# T1 sequence (P22557 79-587): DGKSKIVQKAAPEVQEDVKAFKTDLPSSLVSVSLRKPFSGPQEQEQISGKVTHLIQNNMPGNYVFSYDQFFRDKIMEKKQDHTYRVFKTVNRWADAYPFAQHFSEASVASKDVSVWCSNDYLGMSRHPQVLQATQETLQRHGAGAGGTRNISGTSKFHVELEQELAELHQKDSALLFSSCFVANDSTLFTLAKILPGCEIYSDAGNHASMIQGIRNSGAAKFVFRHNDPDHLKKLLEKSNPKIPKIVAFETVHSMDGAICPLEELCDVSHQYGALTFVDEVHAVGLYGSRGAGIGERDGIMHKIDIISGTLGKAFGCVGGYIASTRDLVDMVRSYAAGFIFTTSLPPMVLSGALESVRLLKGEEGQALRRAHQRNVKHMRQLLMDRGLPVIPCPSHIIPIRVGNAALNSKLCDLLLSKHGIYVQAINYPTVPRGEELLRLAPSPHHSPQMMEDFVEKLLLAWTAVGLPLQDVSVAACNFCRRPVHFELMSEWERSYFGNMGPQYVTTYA
# Test: General IC50 assay, version 2 (2 ug/mL ALAS2), ALA by mass spectrometry
# Assay type: biochemical
# Settings: version 2 assay: 2 ug/mL ALAS2, 0 uM PLP, 2 h reaction, read-out: IC50 (uM) ALAS2 v2
# Description: (§1) The exemplified compounds in Table I were tested in vitro against the wild type ALAS2. As described in Example 38, two concentrations of ALAS2 were used: 5 ug/mL ALAS2 (for the version I assay) and 2 ug/mL (for the version 2 assay). “A” refers to an IC50 less than 10.0 μM; “B” refers to an IC50 from 10.0 μM to 50.0 μM; and “C” refers to an AC50 greater than 50.0 μM.
# (§2) ALAS2 sequence (see FIG. 8) (residues 79-587) was expressed in E. coli as a TEV cleavable C-terminally MBP tagged construct. Purification steps included an amylose column, followed by MBP tag cleavage and passage through a Ni-NTA column to remove cleaved MBP. ALAS2 was further purified and exchanged into storage buffer (50 mM Tris, 500 mM NaCl, 1 mM DTT, 10 μM PLP, pH 8.0) by size exclusion through a Superdex 200 column and stored at −80° C.
# (§3) Preparation of stock solutions: All solutions were prepared by standard methods with the exception of glycine and succinyl CoA. A 1 M solution of glycine was prepared and the pH adjusted to 8.0 by addition of […]. A 1 mM solution of succinyl CoA was prepared in 20 mM phosphoric acid, pH 2.0 to ensure its stability to hydrolysis.
# (§4) Routine compound testing for IC50 measurements: Assays were carried out in 96-well V-bottom polypropylene plates (Greiner-Bio cat. no. 651201) at room temperature. Test compound dilution series and DMSO blanks (1 μL) were dispensed into the 96-well plates. A solution of 1.1× assay mix was prepared to contain, in the final 1× assay conditions: 5 μg/mL ALAS2 (for the version 1 assay) or 2 ug/mL (for the version 2 assay), 20 mM sodium phosphate pH 8.0, 3.5 mM glycine, 1 mM MgCl2, 30 mM NaCl, 0.03% BSA, 1 mM EDTA. Assay mix (45 μL) was added to each well, and compound and assay mix were pre-incubated for 1 h at room temperature. Assays were then initiated by addition of 5 μL 1 mM succinyl CoA to each well to give a final concentration of 100 μM. Reactions proceeded for 1 h (version 1 assay) or 2 h (version 2 assay) at room temperature, then were quenched by addition of 200 μL acetonitrile containing 1% formic acid and 0.2 μg/mL ^13C, ^15N aminolevulinic acid (ALA) as an internal standard. The plates were centrifuged at 4° C. for 1 min at 3500 rpm, then 200 μL of supernatant was transferred to a fresh 96-well plate for detection of ALA by high throughput mass spectrometry.
# (§5) Measurement of ALA concentration by high throughput mass spectrometry: ALA was monitored in positive mode on a Sciex QTRAP 6500 connected to a Shimadzu 20AD LC using the conditions outlined in the table below. Samples were transferred from the assay plate and loaded onto a ZIC HILIC Trap column (Optimize Technologies, 4 μL, 10 μM) at a flow rate of 1.2 mL/min in 99% acetonitrile, 1% ddH2O containing 0.5% formic acid to remove nonvolatile components with a 6 s desalt cycle. Analytes were eluted with 95% acetonitrile, 5% ddH2O containing 0.5% formic acid in 12 s elution cycles. Concentrations of ALA in each sample were measured by comparison to an authentic standard curve, and IC50s were determined by fitting to the log(compound) vs. response equation Y=bottom+(top−bottom)/(1+10^((log IC50-X)*HillSlope)).
row,IC50,SMILES
1,10 to 50 µM,COc1ccc(-c2noc(NN)n2)cc1 [Compound 5]
2,> 50 µM,NNc1nc(-c2cccc(C(F)(F)F)c2)no1 [Compound 3]
3,10 to 50 µM,NNc1nc(-c2ccc(C(F)(F)F)cc2)no1 [Compound 4]
4,< 10 µM,NNc1nc(-c2ccnc3ccccc23)no1 [Compound 1]
5,< 10 µM,NNc1nc(-c2ccc3ccccc3c2)no1 [Compound 2]

# Target: T1, wild type ALAS2
# Test: General IC50 assay, version 1 (5 ug/mL ALAS2), ALA by mass spectrometry
# Assay type: biochemical
# Settings: version 1 assay: 5 ug/mL ALAS2, 0 uM PLP, 1 h reaction
# Description: as §1, §2, §3, §4, §5
row,SMILES,IC50 (uM) ALAS2 v1; 0 uM PLP
1,CC(C)N(N)c1nnn[nH]1 [Compound 62],No Fit
2,CN(N)c1snnc1-c1ccccc1 [Compound 16],No Fit

# Same assay, conditions: version 1 assay: 5 ug/mL ALAS2, 0 uM PLP, 1 h reaction; read-out: IC50 (uM) ALAS2 v1; 0 uM PLP
row,SMILES,IC50
1,NNc1nc(-c2ccc(N)cc2)cs1 [Compound 17],> 50 µM
2,NNc1ccn(CC(F)(F)F)n1 [Compound 31],> 50 µM
3,CN(N)c1nnn[nH]1 [Compound 64],< 10 µM
4,NN(c1nnn[nH]1)C1CC1 [Compound 61],> 50 µM
5,NNc1nc(-c2ccco2)cs1 [Compound 18],> 50 µM
6,N#Cc1ncoc1NN [Compound 59],> 50 µM
7,CCN(N)c1nnn[nH]1 [Compound 63],> 50 µM
8,NNc1nnc(O)[nH]1 [Compound 50],> 50 µM
9,Cn1nnnc1NN [Compound 55],> 50 µM
10,Cc1csc(NN)n1 [Compound 42],> 50 µM
11,NNc1ncc(C(=O)O)s1 [Compound 49],> 50 µM
12,N#Cc1cnc(NN)s1 [Compound 48],10 to 50 µM
13,COCc1cnc(NN)s1 [Compound 41],> 50 µM
14,NNc1nnco1 [Compound 47],> 50 µM
15,NNc1nc(-c2ccc(F)cc2)no1 [Compound 8],10 to 50 µM
16,Cn1cnnc1NN [Compound 58],> 50 µM

row,SMILES,IC50
1,CN(N)c1nnnn1Cc1ccccc1 [Compound 65],> 50 µM
2,NNc1nc(N2CCOCC2)n[nH]1 [Compound 14],10 to 50 µM
3,NN(CCO)c1nnn[nH]1 [Compound 56],> 50 µM
4,Cc1nc(NN)sc1C(=O)O [Compound 54],10 to 50 µM
5,NNc1nnc(C2CC2)s1 [Compound 25],> 50 µM
6,NNc1nc(-c2ccccc2)cs1 [Compound 26],> 50 µM
7,NNc1nnc(C2CCC2)[nH]1 [Compound 12],> 50 µM
8,COCc1cnc(N(N)C(=O)C(F)(F)F)s1 [Compound 51],> 50 µM
9,Cn1c(NN)nnc1-c1ccccc1 [Compound 30],> 50 µM
10,NNc1nc(C(F)(F)F)cs1 [Compound 23],> 50 µM
11,Cc1nc(C#N)c(NN)o1 [Compound 52],> 50 µM
12,CCOC(=O)c1sc(NN)nc1C [Compound 57],10 to 50 µM
13,NNc1nnn[nH]1 [Compound 67],< 10 µM
14,NNc1nnnn1-c1ccccc1 [Compound 15],> 50 µM
15,CCCN(N)c1nnn[nH]1 [Compound 60],> 50 µM

# The next lines start with the values.
row,IC50,SMILES
1,10 to 50 µM,CN(N)c1n[nH]nc1C(F)(F)F [Compound 37]
2,10 to 50 µM,NNc1ccn(CC(F)F)n1 [Compound 33]
3,10 to 50 µM,NNc1cc(-c2ccncc2)[nH]n1 [Compound 7]
4,< 10 µM,CC(C)n1ccc(NN)n1 [Compound 32]
5,< 10 µM,NNc1nnc(C(F)(F)F)s1 [Compound 29]
6,< 10 µM,Cc1ccccc1-c1nnc(NN)[nH]1 [Compound 11]
7,10 to 50 µM,NNc1nc(CO)cs1 [Compound 53]
8,10 to 50 µM,NNc1ccn(-c2ccccc2)n1 [Compound 10]
9,< 10 µM,CN(N)c1n[nH]c(=O)[nH]1 [Compound 43]
10,10 to 50 µM,CCCc1nnc(NN)[nH]1 [Compound 13]
11,10 to 50 µM,NNc1nc(-c2ccccn2)no1 [Compound 6]
12,10 to 50 µM,NNc1cc(-c2ccccc2)[nH]n1 [Compound 9]
13,10 to 50 µM,NNc1cc(C(F)(F)F)n[nH]1 [Compound 28]
14,< 10 µM,NNc1nnc[nH]1 [Compound 66]
15,10 to 50 µM,COc1ccc(-c2nnc(NN)s2)cc1 [Compound 24]
16,< 10 µM,NNc1nc(-c2cccnc2)no1 [Compound 19]
17,< 10 µM,NNc1n[nH]nc1C(F)(F)F [Compound 39]
18,< 10 µM,NNc1nnc(C(F)(F)F)[nH]1 [Compound 44]
19,< 10 µM,NNc1nc(-c2ccncc2)no1 [Compound 20]
20,< 10 µM,NNc1ccn(CC(=O)O)n1 [Compound 35]
21,< 10 µM,NNc1nnc(-c2ccccc2)s1 [Compound 27]
22,< 10 µM,NNc1nc(-c2ccccc2)no1 [Compound 21]
23,< 10 µM,NNc1nnc(-c2ccccc2)[nH]1 [Compound 34]
24,< 10 µM,CCOC(=O)c1[nH]cnc1NN [Compound 46]
25,< 10 µM,CN(N)c1noc(=O)[nH]1 [Compound 45]
26,< 10 µM,CCN(N)c1noc(=O)[nH]1 [Compound 38]
27,< 10 µM,CN(N)c1nnc(C(F)(F)F)[nH]1 [Compound 36]
28,< 10 µM,NNc1nnc(-c2ccccn2)s1 [Compound 22]
29,< 10 µM,Cc1cnc(NN)s1 [Compound 40]
